Several values for one entry are separate records, joined by “and”; a condition that tells them apart may be missing. Identical values can stand only once. Like-named read-outs stand apart in the source and are kept apart here.
Tested on: panel of 140 standard cancer cell lines
Experiment: ProliFiler-140 cancer cell line screen (CellTiterGlo, 72 h)
Assay type: cell-based
Protocol: Incubations were performed for 72 h before automated viability readout with CellTiterGlo (Figure 8).
End of Figure S11 (part 5 of 5): ProliFiler-140 cancer cell line screening for cytotoxicity of the prodrugs.
8-data-point dose response curves from CellTiter-Glo® viability readout.
ProliFiler-140 cell line panel part V

COc1cc2cc(C(=O)N3C[C@@H](CCl)c4c3cc(OC(=O)N(CCC(=O)N3CCN(C)CC3)[C@H]3CCSSC3)c3ccccc43)[nH]c2c(OC)c1OC [P-SS60-CBI-TMI]
Reductive Activation Index (MKN-1 (Stomach)): 7.3
IC50 (MKN-1 (Stomach), read-out: IC50 [M] (ProliFiler-140)): 2.1e-07 M
Reductive Activation Index (MKN-45 (Stomach)): 5.36
IC50 (MKN-45 (Stomach), read-out: IC50 [M] (ProliFiler-140)): 9.08e-08 M and 9.1e-08 M
IC50 (MOLM-13 (Blood), read-out: IC50 [M] (ProliFiler-140)): 9.1e-09 M and 9.12e-09 M
IC50 (MOLT-4 (Blood), read-out: IC50 [M] (ProliFiler-140)): 1.3e-08 M and 1.29e-08 M
IC50 (MOLT-4, read-out: IC50): 1.3e-08 M
IC50 (MV4-11 (Blood), read-out: IC50 [M] (ProliFiler-140)): 2.8e-09 M and 2.76e-09 M
Reductive Activation Index (Mia PaCA 2 (Pancreas)): 5.48
IC50 (Mia PaCA 2 (Pancreas), read-out: IC50 [M] (ProliFiler-140)): 6.84e-08 M and 6.8e-08 M
Reductive Activation Index (NALM-6 (Blood)): 5.7
IC50 (NALM-6 (Blood), read-out: IC50 [M] (ProliFiler-140)): 9.79e-09 M and 9.8e-09 M
Reductive Activation Index (NCI-H82 (Lung)): 5.0
IC50 (NCI-H82 (Lung), read-out: IC50 [M] (ProliFiler-140)): 1.5e-07 M and 1.49e-07 M
IC50 (NCI-H292 (Lung), read-out: IC50 [M] (ProliFiler-140)): 4.8e-08 M and 4.84e-08 M
Reductive Activation Index (NCI-H441 (Lung)): 5.40
IC50 (NCI-H441 (Lung), read-out: IC50 [M] (ProliFiler-140)): 5.44e-08 M and 5.4e-08 M
Reductive Activation Index (NCI-H838 (Lung)): 6.2
IC50 (NCI-H838 (Lung), read-out: IC50 [M] (ProliFiler-140)): 1.2e-07 M and 1.21e-07 M
Reductive Activation Index (NCI-H1048 (Lung)): 7.4
IC50 (NCI-H1048 (Lung), read-out: IC50 [M] (ProliFiler-140)): 8e-09 M and 8.01e-09 M
IC50 (NCI-H1437 (Lung), read-out: IC50 [M] (ProliFiler-140)): 5.21e-08 M and 5.2e-08 M
Reductive Activation Index (NCI-H1563 (Lung)): 8.6
IC50 (NCI-H1563 (Lung), read-out: IC50 [M] (ProliFiler-140)): 2e-07 M and 1.97e-07 M
Reductive Activation Index (NCI-H1573 (Lung)): 6.1
IC50 (NCI-H1573 (Lung), read-out: IC50 [M] (ProliFiler-140)): 1.8e-07 M and 1.76e-07 M
IC50 (NCI-H1581 (Lung), read-out: IC50 [M] (ProliFiler-140)): 4.23e-08 M and 4.2e-08 M
Reductive Activation Index (NCI-H1703 (Lung)): 6.7
IC50 (NCI-H1703 (Lung), read-out: IC50 [M] (ProliFiler-140)): 1.2e-07 M and 1.21e-07 M
Reductive Activation Index (NCI-H1838 (Lung)): 9.6
IC50 (NCI-H1838 (Lung), read-out: IC50 [M] (ProliFiler-140)): 8.5e-08 M and 8.53e-08 M
IC50 (NCI-H2009 (Lung), read-out: IC50 [M] (ProliFiler-140)): 6.17e-08 M and 6.2e-08 M
IC50 (NCI-H2110 (Lung), read-out: IC50 [M] (ProliFiler-140)): 2.7e-08 M and 2.67e-08 M
IC50 (NCI-H2286 (Lung), read-out: IC50 [M] (ProliFiler-140)): 1.9e-08 M and 1.91e-08 M
Reductive Activation Index (NCI-N87 (Stomach)): 8.1
IC50 (NCI-N87 (Stomach), read-out: IC50 [M] (ProliFiler-140)): 1.4e-07 M and 1.41e-07 M
IC50 (OCI-AML3 (Blood), read-out: IC50 [M] (ProliFiler-140)): 3.3e-08 M and 3.29e-08 M
Reductive Activation Index (OCI-AML5 (Blood)): 3.9 and 3.93
IC50 (OCI-AML5 (Blood), read-out: IC50 [M] (ProliFiler-140)): 8.6e-09 M and 8.62e-09 M
Reductive Activation Index (OCI-LY19 (Blood)): 3.74
IC50 (OCI-LY19 (Blood), read-out: IC50 [M] (ProliFiler-140)): 4.11e-09 M and 4.1e-09 M
Reductive Activation Index (OPM-2 (Blood)): 5.41
IC50 (OPM-2 (Blood), read-out: IC50 [M] (ProliFiler-140)): 1.22e-07 M and 1.2e-07 M
Reductive Activation Index (OV56 (Ovary)): 3.10
IC50 (OV56 (Ovary), read-out: IC50 [M] (ProliFiler-140)): 6.51e-08 M and 6.5e-08 M
Reductive Activation Index (OVCAR-3 (Ovary)): 8.7
IC50 (OVCAR-3 (Ovary), read-out: IC50 [M] (ProliFiler-140)): 1.2e-07 M and 1.17e-07 M
IC50 (OVCAR-3, read-out: IC50): 1.2e-07 M
Reductive Activation Index (OVK18 (Ovary)): 4.66
IC50 (OVK18 (Ovary), read-out: IC50 [M] (ProliFiler-140)): 4.29e-08 M and 4.3e-08 M
IC50 (P31/FUJ (Blood), read-out: IC50 [M] (ProliFiler-140)): 3.7e-08 M and 3.66e-08 M
Reductive Activation Index (PANC-1 (Pancreas)): 5.4
IC50 (PANC-1 (Pancreas), read-out: IC50 [M] (ProliFiler-140)): 2.5e-07 M and 2.53e-07 M
IC50 (PC3 (Prostate), read-out: IC50 [M] (ProliFiler-140)): 5.8e-08 M
IC50 (PC3, read-out: IC50): 5.8e-08 M
IC50 (PC-9 (Lung), read-out: IC50 [M] (ProliFiler-140)): 1.7e-08 M
Reductive Activation Index (RERF-LC-Ad2 (Lung)): 4.2 and 4.21
IC50 (RERF-LC-Ad2 (Lung), read-out: IC50 [M] (ProliFiler-140)): 1.9e-07 M and 1.86e-07 M
IC50 (RERF-LC-MS (Lung), read-out: IC50 [M] (ProliFiler-140)): 6.44e-08 M and 6.4e-08 M
IC50 (RKO (Colon), read-out: IC50 [M] (ProliFiler-140)): 4.51e-08 M and 4.5e-08 M
Reductive Activation Index (RL95-2 (Endometrium)): 4.84
IC50 (RL95-2 (Endometrium), read-out: IC50 [M] (ProliFiler-140)): 1.54e-07 M and 1.5e-07 M
IC50 (RPMI 8226 (Blood), read-out: IC50 [M] (ProliFiler-140)): 3.86e-08 M and 3.9e-08 M
IC50 (RPMI 8226, read-out: IC50): 3.9e-08 M
IC50 (SCH (Stomach), read-out: IC50 [M] (ProliFiler-140)): 5.2e-08 M and 5.16e-08 M
Reductive Activation Index (SCLC-21H (Lung)): 4.91
IC50 (SCLC-21H (Lung), read-out: IC50 [M] (ProliFiler-140)): 3.21e-08 M and 3.2e-08 M
Reductive Activation Index (SJSA-1 (Bone)): 15.99
IC50 (SJSA-1 (Bone), read-out: IC50 [M] (ProliFiler-140)): 2.37e-08 M and 2.4e-08 M
IC50 (SK-BR-3 (Breast), read-out: IC50 [M] (ProliFiler-140)): 7.4e-08 M and 7.39e-08 M
IC50 (SK-ES-1 (Bone), read-out: IC50 [M] (ProliFiler-140)): 5.66e-09 M and 5.7e-09 M
IC50 (SK-LU-1 (Lung), read-out: IC50 [M] (ProliFiler-140)): 2.7e-08 M
Reductive Activation Index (SK-MEL-3 (Skin)): 5.8
IC50 (SK-MEL-3 (Skin), read-out: IC50 [M] (ProliFiler-140)): 1.8e-07 M and 1.77e-07 M
Reductive Activation Index (SK-N-FI (Brain)): 5.68
IC50 (SK-N-FI (Brain), read-out: IC50 [M] (ProliFiler-140)): 1.2e-07 M
IC50 (SK-N-MC (Brain), read-out: IC50 [M] (ProliFiler-140)): 2.7e-09 M
Reductive Activation Index (SK-N-SH (Brain)): 5.1 and 5.09
IC50 (SK-N-SH (Brain), read-out: IC50 [M] (ProliFiler-140)): 1.5e-07 M and 1.46e-07 M
IC50 (SK-OV3 (Ovary), read-out: IC50 [M] (ProliFiler-140)): 6.17e-08 M and 6.2e-08 M
IC50 (SK-OV3, read-out: IC50): 6.2e-08 M
Reductive Activation Index (SNU840 (Ovary)): 1.83
IC50 (SNU840 (Ovary), read-out: IC50 [M] (ProliFiler-140)): 3.82e-08 M and 3.8e-08 M
IC50 (SNU-1 (Stomach), read-out: IC50 [M] (ProliFiler-140)): 3e-08 M
IC50 (SNU-16 (Stomach), read-out: IC50 [M] (ProliFiler-140)): 1.23e-07 M and 1.2e-07 M
Reductive Activation Index (SNU-216 (Stomach)): 6.77 and 6.8
IC50 (SNU-216 (Stomach), read-out: IC50 [M] (ProliFiler-140)): 2.72e-07 M and 2.7e-07 M
Reductive Activation Index (SU-DHL-5 (Blood)): 6.4
IC50 (SU-DHL-5 (Blood), read-out: IC50 [M] (ProliFiler-140)): 7.8e-09 M and 7.78e-09 M
Reductive Activation Index (SW480 (Colon)): 5.10
IC50 (SW480 (Colon), read-out: IC50 [M] (ProliFiler-140)): 6.5e-08 M
Reductive Activation Index (SW620 (Colon)): 5.01
IC50 (SW620 (Colon), read-out: IC50 [M] (ProliFiler-140)): 1.4e-07 M
IC50 (SW620, read-out: IC50): 1.4e-07 M
Reductive Activation Index (SW948 (Colon)): 5.26
IC50 (SW948 (Colon), read-out: IC50 [M] (ProliFiler-140)): 1.29e-07 M and 1.3e-07 M
IC50 (SW-1783 (Brain), read-out: IC50 [M] (ProliFiler-140)): 6.68e-08 M and 6.7e-08 M
Reductive Activation Index (Saos-2 EC (Bone)): 6.02
IC50 (Saos-2 EC (Bone), read-out: IC50 [M] (ProliFiler-140)): 3.88e-08 M and 3.9e-08 M
Reductive Activation Index (SiHa (Ovary)): 5.51
IC50 (SiHa (Ovary), read-out: IC50 [M] (ProliFiler-140)): 1.11e-07 M and 1.1e-07 M
Reductive Activation Index (T84 (Colon)): 5.12 and 5.1
IC50 (T84 (Colon), read-out: IC50 [M] (ProliFiler-140)): 1.77e-07 M and 1.8e-07 M
IC50 (T98G (Brain), read-out: IC50 [M] (ProliFiler-140)): 8.64e-08 M and 8.6e-08 M
Reductive Activation Index (T-47D (Breast)): 4.5
IC50 (T-47D (Breast), read-out: IC50 [M] (ProliFiler-140)): 2.3e-07 M and 2.31e-07 M
IC50 (T-47D, read-out: IC50): 2.3e-07 M
Reductive Activation Index (U2OS (Bone)): 5.36
IC50 (U2OS (Bone), read-out: IC50 [M] (ProliFiler-140)): 2.44e-08 M and 2.4e-08 M
Reductive Activation Index (U87MG (Brain)): 5.4
IC50 (U87MG (Brain), read-out: IC50 [M] (ProliFiler-140)): 2.3e-07 M and 2.25e-07 M
Reductive Activation Index (U118MG (Brain)): 2.81
IC50 (U118MG (Brain), read-out: IC50 [M] (ProliFiler-140)): 1.4e-07 M
Reductive Activation Index (U251MG (Brain)): 11
IC50 (U251MG (Brain), read-out: IC50 [M] (ProliFiler-140)): 1.9e-07 M and 1.88e-07 M
IC50 (U-266 (Blood), read-out: IC50 [M] (ProliFiler-140)): 2.23e-08 M and 2.2e-08 M
Reductive Activation Index (U-937 (Blood)): 4.50
IC50 (U-937 (Blood), read-out: IC50 [M] (ProliFiler-140)): 1.64e-08 M and 1.6e-08 M
Reductive Activation Index (ZR-75-1 (Breast)): 6.4
IC50 (ZR-75-1 (Breast), read-out: IC50 [M] (ProliFiler-140)): 2.22e-07 M and 2.2e-07 M
IC50 (read-out: IC50 [M] (ProliFiler-140)): 1.74e-08 M and 1.7e-08 M

Source: publication PMC10141580, “Cyclic Dichalcogenides Extend the Reach of Bioreductive Prodrugs to Harness Thiol/Disulfide Oxidoreductases: Applications to seco-Duocarmycins Targeting the Thioredoxin System” (ACS Central Science, 2023)
